Laboratory results: patent US9994901B2, “Pro-inflammatory mediators in diagnosis and treatment of chronic obstructive pulmonary disease” (The Regents of the University of Colorado, priority 2012, dated 2018)

Tests used:
human PB monocytes = experiment: Human PB monocytes cultured on fibronectin 48 hrs, conditioned media ELISA (FIG. 3); format: cell-based; settings: human PB monocytes (n=6) on fibronectin 48 hrs, PTA2 added; ELISA of conditioned media
Method: FIG. 3. […] Fibronectin (FN) induces pro-inflammatory mediator in human PB monocytes. Monocytes (n=6) were cultured on plastic (ctl) or fibronectin (FN) for 48 hrs. Pinane thromboxane A2 (PTA2), a thromboxane receptor antagonist, was added to some FN cultures. Conditioned media was analyzed for indicated mediators by ELISA. *P<0.05 Students two tailed t-test compared to plastic.
In particular, murine macrophages promote inflammation via a signaling pathway that depends on thromboxane receptor signaling and that is repressed by ARHGEF1. Monocytes from a healthy individual similarly promote inflammation, as indicated by MMP-9, TNFα and MCP-1 production, and this is inhibited by a (commercially available research grade) thromboxane receptor antagonist (FIG. 3).
To facilitate this analysis, we used an ELISA-based platform developed by Meso Scale Discovery (MSD), Gaithersburg, Md. USA (www.mesoscale.com) that allows a multiplex format for the analysis of pro-inflammatory cytokines, chemokines, and matrix metalloproteases. This platform relies on proprietary detection and patterned arrays in a 96-well format and that has an extremely large dynamic range enabling detection of these pro-inflammatory mediators from both biological samples (BAL fluid, serum, etc.) and tissue culture supernatant. An MSD plate reader (Sector Imager 2400) was used.

COPD patient monocytes = experiment: COPD patient peripheral blood monocytes cultured on fibronectin, IL-8 production (FIG. 15); format: cell-based, human
Method: FIG. 15. […] Graphically depicted are the results from treating human monocytes cultured on fibronectin with two different TP antagonist. […] Some fibronectin cultured cells were treated with the thromboxane receptor antagonist Pinane Thromboxane (PTA2). For PTA2 treatment, the concentration utilized is 7.5 μM.
Some fibronectin cultured cells were treated with the thromboxane receptor antagonist Pinane Thromboxane (PTA2). For PTA2 treatment, the concentration used was 7.5 μM.

Arhgef1-/- animals = experiment: Arhgef1-/- animals, inhalation of PTA2, BAL supernatant ELISA (FIG. 11); format: in vivo, mouse; settings: ELISA 24 hr after a 1 hr inhalation exposure, vs vehicle
Method: FIG. 11. Panels A and B graphically depict the measurement of BAL pro-inflammatory mediators by ELISA in Arhgef1 deficient animals treated by inhalation of PTA2 or vehicle. […] Pro-inflammatory mediators were measured in BAL supernatant 24 hr after a 1 hr inhalation exposure to either vehicle (black bars on left sides, n=16) or PTA2 (grey bars on right sides, n=3).
(§1) Treatment with a thromboxane receptor antagonist decreases the expression of pro-inflammatory mediators.

Arhgef1-/- mice = Arhgef1-/- mice treated with TP antagonist, RT-PCR of BAL cells and lung tissue (FIGS. 9, 10); format: in vivo, mouse; settings: time course, single dose
Description: Arhgef1 is an intracellular signaling molecule which has been shown specifically to modulate signaling from Gα12/13 coupled receptors. […] We have identified that thromboxane receptor signaling is required for fibronectin induced MMP-9 expression in wild type and Arhgef1-deficient cells. Treatment of Arhgef1-deficient mice with a thromboxane receptor antagonist results in a consistent and reproducible reduction in MMP-9 expression and activity in the pulmonary compartment. […] Importantly treatment with a thromboxane receptor antagonist decreased expression of all of these mediators in the Arhgef1-deficient lungs. These findings were unexpected.
as §1

human monocytes = experiment: Human monocytes cultured on fibronectin, IL-6 by ELISA (FIG. 12); format: cell-based; settings: FN+20 mM aspirin vs FN
Description: Experiments summarized in the top of FIG. 12 show culture of human monocytes on fibronectin (FN) induces several pro-inflammatory mediators as measured by ELISA.

## CCCCC[C@@H](O)/C=C/[C@H]1C[C@H]2C[C@@H]([C@@H]1C/C=C\CCCC(=O)O)C2(C)C (relative stereo) [PTA2, (1S-(1alpha,2beta(Z),3alpha(1E,3S*),5alpha))-7-(3-(3-Hydroxy-1-octenyl)-6,6-dimethylbicyclo(3.1.1)hept-2-yl)-5-heptenoic acid]
Human PB monocytes
  FN induced MCP-1: dependent on TP signaling
  FN induced TNF-: dependent on TP signaling
COPD patient monocytes; monocytes from 3 COPD patients on fibronectin, PTA2 7.5 μM
  IL-8 production: reduce IL-8 production
Arhgef1-/- animals
  production of several pro-inflammatory mediators in BAL supernatant: reduces production of several pro-inflammatory mediators

## Cc1c(CC(C)(C)C(=O)O)n(Cc2ccc(Cl)cc2)c2ccc(F)cc12 [L655, 1-[(4-Chlorophenyl)methyl]-5-fluoro-α,α,3-trimethyl-1H-indole-2-propanoic acid]
Arhgef1-/- mice
  expression of several pro-inflammatory mediators, RT-PCR of BAL cells: decreases expression of several pro-inflammatory mediators
  expression of several pro-inflammatory mediators, RT-PCR of lung tissue: decreases expression of several pro-inflammatory mediators

## CC1=C(C)C(=O)C(C(CCCCCC(=O)O)c2ccccc2)=C(C)C1=O (centres unmarked) [Seratrodast, 7-phenyl-7-(2,4,5-trimethyl-3,6-dioxocyclohexa-1,4-dien-1-yl)heptanoic acid]
COPD patient monocytes; monocytes from a COPD patient on fibronectin, Seratrodast 0.448, 2.24, 11.2 μM
  IL-8 production: reduce IL-8 production

## CC(=O)Oc1ccccc1C(=O)O [aspirin]
Human monocytes
  FN induced IL-6 production: reduced
